Values after ≈ are worked out from the molar mass of the structure shown.
How the values were obtained:
Type in all cases: cell-based
[1] = test system: Enterococcus faecium VRQR (vancomycin resistant, quinolone resistant); test: MIC, agar dilution method, Mueller-Hinton agar with 5% defibrinated horse blood; conditions: 35° C., 5 % CO2, 24 hours
Experimental: (§1) The following in vitro results were obtained based on an agar dilution method except for C. pneumoniae. The activity is presented as the minimum inhibitory concentration (MIC).
(§2) Streptococci and enterococci were tested on Mueller-Hinton agar supplemented with 5% defibrinated horse blood, using an approximate inoculum of 1×10^4 cfu/spot an incubation temperature of 35° C. in an atmosphere of 5 % CO2 for 24 hours. The MIC was defined as the lowest concentration at which no visible bacterial growth was observed.

[2] = test system: Streptococcus pneumoniae IID553; test: as above; conditions: 35° C., 5 % CO2, 24 hours
Experimental: as §1, §2

[3] = test system: Streptococcus pneumoniae PRQR (penicillin resistant, quinolone resistant); test: as above; conditions: 35° C., 5 % CO2, 24 hours
Experimental: as §1, §2

[4] = test system: Streptococcus pyogenes IID692; test: as above; conditions: 35° C., 5 % CO2, 24 hours
Experimental: as §1, §2

[5] = test system: Morcaxella catarrhalis ATCC25238; test: MIC, agar dilution method, Mueller-Hinton agar; conditions: 35° C., 24 hours
Experimental: as §1
(§3) S. aureus and M. catarrhalis were tested on Mueller-Hinton agar, using an approximate inoculum of 1×10^4 cfu/spot an incubation temperature of 35° C. for 24 hours. The MIC was defined as the lowest concentration at which no visible bacterial growth was observed.

[6] = test system: Staphylococcus aureus CR (chloramphenicol resistant); test: MIC, agar dilution method, Mueller-Hinton agar; conditions: 35° C., 24 hours
Experimental: as §1, §3

[7] = test system: Staphylococcus aureus MR (methicillin resistant); test: MIC, agar dilution method, Mueller-Hinton agar; conditions: 35° C., 24 hours
Experimental: as §1, §3

[8] = test system: Staphylococcus aureus Smith; test: MIC, agar dilution method, Mueller-Hinton agar; conditions: 35° C., 24 hours
Experimental: as §1, §3

Row | SMILES | MIC [1] | MIC [2] | MIC [3] | MIC [4] | MIC [5] | MIC [6] | MIC [7] | MIC [8]
1 | CC(=O)NC[C@H]1CN(c2ccc(-c3ccc([C@@]4(C#N)[C@@H]5CNC[C@@H]54)nc3)cc2)C(=O)O1.Cl [Example 13, N-[5(S)-3-[4-[2-[(1α,5α,6β)-6-Cyano-3-azabicyclo[3.1.0]hexan-6-yl]pyridin-5-yl]phenyl]-2-oxooxazolidin-5-ylmethyl]acetamide Hydrochloride] | 0.125 µg/mL | 0.125 µg/mL | 0.06 µg/mL | 0.06 µg/mL | 1 µg/mL | 0.5 µg/mL | 0.125 µg/mL | 0.125 µg/mL
2 | N#C[C@]1(c2ccc(-c3ccc(N4C[C@H](Cn5ccnn5)OC4=O)cc3F)cn2)[C@@H]2COC[C@@H]21 [Example 23, 1-[5(R)-3-[4-[2-[(1α,5α,6β)-6-Cyano-3-oxabicyclo[3.1.0]hexan-6-yl]pyridin-5-yl]-3-fluorophenyl]-2-oxooxazolidin-5-ylmethyl]-1,2,3-triazole] | 0.06 µg/mL (≈ 0.134 µM) | 0.06 µg/mL (≈ 0.134 µM) | 0.06 µg/mL (≈ 0.134 µM) | 0.06 µg/mL (≈ 0.134 µM) | 0.5 µg/mL (≈ 1.12 µM) | 0.5 µg/mL (≈ 1.12 µM) | 0.06 µg/mL (≈ 0.134 µM) | 0.06 µg/mL (≈ 0.134 µM)
3 | CC(=O)NC[C@H]1CN(c2ccc(N3CCOCC3)c(F)c2)C(=O)O1 [Linezolid, reference compound] | – | – | – | – | 4 µg/mL (≈ 11.9 µM) | – | – | –
4 | CC(=O)NC[C@H]1CN(c2ccc(-c3ccc([C@@]4(C#N)[C@@H]5CNC[C@@H]54)c(F)c3)c(F)c2)C(=O)O1.Cl [Example 15, N-[5(S)-3-[4-[4-[(1α,5α,6β)-6-Cyano-3-azabicyclo[3.1.0]hexan-6-yl]-3-fluorophenyl]-3-fluorophenyl]-2-oxooxazolidin-5-ylmethyl]acetamide Hydrochloride] | 0.5 µg/mL | 0.25 µg/mL | 0.25 µg/mL | 0.25 µg/mL | 4 µg/mL | 1 µg/mL | 0.25 µg/mL | 0.25 µg/mL

Reference: US7582659B2, “Cyclopropyl group substituted oxazolidinone antibiotics and derivatives thereof” (Merck & Co., Inc., priority 2003, dated 2009)
